Here are results for one compound from patent US20090197872A1 (priority 2006, published 2009).

This experiment deals with T1, α7-subtype of nicotinic receptors (Rattus norvegicus, UniProt Q05941).
T1 construct: from tissue; host or cells: rat brain
Kind of experiment: biochemical. Conditions: read-out: Inhibition of 3H-α-Bungarotoxine Binding IC50.

Counter-ions that a name gives are not always drawn.

T1 sequence (Q05941 23-502): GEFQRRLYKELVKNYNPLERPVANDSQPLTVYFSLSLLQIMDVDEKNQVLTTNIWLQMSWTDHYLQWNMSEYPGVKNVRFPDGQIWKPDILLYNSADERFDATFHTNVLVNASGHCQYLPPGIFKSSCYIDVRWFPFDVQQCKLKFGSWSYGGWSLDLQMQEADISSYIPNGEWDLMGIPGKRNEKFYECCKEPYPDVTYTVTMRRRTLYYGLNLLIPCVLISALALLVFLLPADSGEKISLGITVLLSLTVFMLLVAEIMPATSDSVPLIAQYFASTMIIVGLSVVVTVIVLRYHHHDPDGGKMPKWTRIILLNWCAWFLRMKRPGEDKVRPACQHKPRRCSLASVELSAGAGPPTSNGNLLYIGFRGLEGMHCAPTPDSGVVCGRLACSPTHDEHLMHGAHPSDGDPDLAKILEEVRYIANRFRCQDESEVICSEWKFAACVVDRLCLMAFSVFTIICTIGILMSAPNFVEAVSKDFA

Take `O=C(Nc1cnc(N2CCN3CCC2CC3)nc1)Oc1ccccc1` [Compound A2, [2-(1,4-Diaza-bicyclo[3.2.2]non-4-yl)-pyrimidin-5-yl]-carbamic Acid Phenyl Ester Hydrochloric Acid Salt]: the IC50 (in general, the point on the concentration scale where inhibition reaches its midpoint) was below 300 nM.
